Laboratory results as given in US5438118A, “HIV protease inhibitors” (SmithKline Beechman Corp., priority 1993, dated 1995).

Target: T1, rHIV protease (Human immunodeficiency virus type 1 group M subtype B, UniProt P03366)
T1 construct: the reaction is initiated with purified 0.01-1 mg HIV protease
Experiment: Inhibition of hydrolysis of a peptide substrate by rHIV protease (HPLC, Dixon analysis)
Format: biochemical, HIV
Settings: substrate Ac-Arg-Ala-Ser-Gln-Asn-Tyr-Pro-Val-Val-NH2, MENDT buffer pH 6.0, 37° C.; Ki from Dixon analysis
Method: The data in the following table is representative of inhibition produced by these compounds.
A typical assay contains […] MENDT buffer (50 mM Mes (pH 6.0; 2-(N-morpholino)ethanesulfonic acid), 1 mM EDTA, 1 mM dithiothreitol, 200 mM NaCl, 0.1% Triton X100); 2, 3, or 6 mM N-acenyl-L-arginyl-L-alanyl-L-seryl-L-glutaminyl-L-asparaginyl-L-tyrosyl-L-prolyl-L-valyl-L-valinamide (Ac-Arg-Ala-Ser-Gln-Asn-Tyr-Pro-Val-Val-[…]NH2; Km =7 mM); and micromolar and sub-micromolar concentrations of synthetic compounds. Following incubation at 37° C. for several min, the reaction is initiated with purified 0.01-1 mg HIV protease. Reaction mixtures (37° C.) are quenched after 10-20 min with an equal volume of cold 0.6N trichloroacetic acid, and, following centrifugation to remove precipitated material, peptidolysis products are analyzed by reverse phase HPLC (Beckman Ultrasphere ODS, 4.5 mm×[…]; mobile phase; 5-20% acetonitrile/H2 O--0.1% TFA (15 min), 20% acetonitrile/H2 O--0.1% TFA (5 min) at 1.5 mL/min, detection at 220 nm. The elution positions of Ac-Arg-Ala-Ser-Gln-Asn-Tyr-Pro-Val-Val-NH2 (17-18 min) and Ac-Arg-Ala-Ser-Gln-Asn-Tyr (10-11 min) are confirmed with authentic material. Initial rates of Ac-Arg-Ala-Ser-Gln-Asn-Tyr formation are determined from integration of these peaks, and typically, the inhibitory properties of the synthetic compounds are determined from slope/intercept analysis of a plot of 1/v vs. [inhibitor] (Dixon analysis). Ki values resulting from this type of primary analysis are accurate for competitive inhibitors only, and under conditions in which the Michaelis constant of the substrate used is well determined.

With `COC(=O)[C@@H](NC(=O)[C@@H](NC(=O)C(C)N1CCC(C(C)NC(=O)[C@H](C)N)=CC(Cc2ccccc2)C1=O)C(C)C)C(C)C` (stereo partly drawn) [Example 1, 2-[3-benzyl-5-(1-alanylamino-ethyl)-2,3,6,7-tetrahydro-1H-2-oxo-azepin-1-yl]-1-oxo-propyl-valinyl-valine methyl ester] as the compound, how does the Ki read?
Its Ki is 100 µM.

How did the Ki turn out when `COC(=O)[C@@H](NC(=O)[C@@H](NC(=O)C(C)N1CCC(C(C)NC(=O)[C@H](C)N)=CC(Cc2ccccc2)C1)C(C)C)C(C)C` (stereo partly drawn) [Example 2, 2-[3-benzyl-5-(1-alanylamino-ethyl)-2,3,6,7-tetrahydro-1H-azepin-1-yl]-1-oxo-propyl-valinyl-valine methyl ester] was run?
The Ki was 0.6 µM.

How did the Ki turn out when `COC(=O)[C@@H](NC(=O)[C@@H](NC(=O)C(C)N1CCC(C(C)NC(=O)[C@@H](N)Cc2ccccc2)=CC(Cc2ccccc2)C1)C(C)C)C(C)C` (stereo partly drawn) [Example 3, 2-[3-benzyl-5-(1-(phenylalanyl)amino-ethyl)-2,3,6,7-tetrahydro-1H-azepin-1-yl]-1-oxo-propyl-valinyl-valine methyl ester] was run?
Its Ki is 3.6 µM.
